Experiment [1] concerns α-tubulin (lysine K40) acetylation in ST14A cells. In words: α-Tubulin acetylation in differentiated ST14A cells. Type of experiment: cell-based, rat. To be noted: mutant HD and wild type ST14A cells, 6 hours. As to the method:
Compound bioactivity was tested in the rat embryonic striatal cell lines ST14A, which stably express either a mutant expanded repeat (128Q) or wild type (26Q) 546 amino acid huntingtin (HTT) fragment (a generous gift of E. Cattaneo) (Ehrlich et al., 2001) ST14A cells were propagated at 33° C. in the presence of serum. To induce neuronal differentiation, cells were serum deprived and cultured at 37° C. in the presence of N2 supplement. […]
This increased α-tubulin acetylation in compound-treated cells was consistent with the activity of MIND4 as a SIRT2 inhibitor.

The target of experiment [2] is recombinant human KEAP1 protein (Homo sapiens (Human), UniProt Q14145). Nature of the experiment: SPR (Surface Plasmon Resonance) Biacore binding assay. On the procedure:
Briefly, compound MIND4-17 and MIND4 binding to baculovirous expressed KEAP1 by Surface Plasmon Resonance (SPR) binding Biacore assay was performed by CRO Precision Antibody, Inc. Binding experiments were performed on Biacore T-200 at 25° C. using CM5 chip. Anti-GST tag antibody was immobilized by amine coupling. The ligand KEAP1 was captured until 800 RU was reached. Antigen was flowed over the chip at variable concentrations. Binding of analyte to the ligand was monitored in real time to obtain on (ka) and off (kd) rates. The equilibrium constant (KD) was calculated from the observed ka and kd. In pilot experiment the analytes MIND4 and MIND4-17 were flowed over the chip at 3 different concentrations as indicated and kinetic analysis was performed. Full kinetic analysis was performed for MIND4-17 using analyte concentrations of 140 μM (the saturating amount) and run at serial dilutions 70, 35, 17.5, 8.75, 4.375 and 0. Chi square (χ^2) analysis was carried out between the actual Sensorgram (colored line) and the sensorgram generated from the BIAnalysis software (black line) to determine the accuracy of the analysis. (χ^2) value within 2-1 is considered significant (accurate) and below 1 is highly significant (highly accurate). The flow rate used for capturing the ligand was […] and the flow rate for kinetics analysis was […]. The Biacore binding assay was performed using assay buffer: 10 mM HEPES buffer (pH 7.4), 150 mM NaCl, 3 mM EDTA, 0.005% P20 (polyoxyethylenesorbitan), 5% DMSO; regeneration buffer: 10 mM HEPES buffer (pH 7.4), 150 mM NaCl, 3 mM EDTA, 0.005% P20 (polyoxyethylenesorbitan), 5% DMSO; and conjugation buffer: 10 mM sodium acetate buffer (pH 4.5).

Experiment [3] concerns TNFα. Nature of the experiment: TNFα protein in brain of HD mouse model R6/2. Type of experiment: in vivo. To be noted: R6/2 mice, daily i.p. 50 mg/kg, 4 weeks. As to the method: To assess protein levels, cell extracts were prepared from cells washed with PBS and lysed with buffer containing 2% SDS, Complete EDTA-free Protease Inhibitor Cocktail (Roche) and 1 mM phenylmethylsulfonyl fluoride. To prepare brain extracts for analysis, frozen mouse cortical tissues were homogenized in PBS containing protease inhibitors with an Kontes Pellet Pestle (Kimble/Kontes). They were later sonicated and lysed overnight at 4° C. in 2× volume of lysis buffer containing 2% SDS and protease inhibitors. Protein concentrations in ST14A cell extracts and homogenized cortical tissues were evaluated using a BCA analysis kit and normalized. Samples were prepared in a SDS buffer containing DTT and separated on bis-acrylamide protein gels via electrophoresis and transferred onto a 0.2 μm PVDF membrane). […]
For this animal trial, the well-characterized transgenic R6/2 mouse model of HD was selected, in which severe neurological phenotypes and premature death at age of 12-13 week is conferred by expression of a human HTT exon 1 fragment containing a pathological ˜150Q repeat tract (Mangiarini et al., 1996). […] Body weights were recorded weekly at the same time of day. At 10 weeks of age, mice were sacrificed 2 hrs after the last injection; brains were removed and snap frozen in liquid nitrogen and kept frozen at −80° C. until analyzed. […]

For experiment [4], the system named is NRF2-target proteins NQO1 and GCLM. In words: NQO1 and GCLM proteins in wild type mouse cortical neurons (immunoblotting). Type of experiment: cell-based. The settings on record: wild type mouse cortical neurons (6 DIV), 24 hr. On the procedure: To assess protein levels, cell extracts were prepared from cells washed with PBS and lysed with buffer containing 2% SDS, Complete EDTA-free Protease Inhibitor Cocktail (Roche) and 1 mM phenylmethylsulfonyl fluoride. To prepare brain extracts for analysis, frozen mouse cortical tissues were homogenized in PBS containing protease inhibitors with an Kontes Pellet Pestle (Kimble/Kontes). They were later sonicated and lysed overnight at 4° C. in 2× volume of lysis buffer containing 2% SDS and protease inhibitors. Protein concentrations in ST14A cell extracts and homogenized cortical tissues were evaluated using a BCA analysis kit and normalized. Samples were prepared in a SDS buffer containing DTT and separated on bis-acrylamide protein gels via electrophoresis and transferred onto a 0.2 μm PVDF membrane). Membranes were probed for NQO1 (Sigma N5288, 1:1,000), GCLM, (Abcam ab126704, 1:800), SIRT2 (Sigma S8447, 1:2,500), histone H3 (Cell Signaling 4499, 1:2,000), acetylated H3 (K56) (Millipore 04-1135, 1:500), TNFα (Abcam ab1793, 1:1,500), GADPH (Millipore MAB374, 1:10,000), actin (Sigma A2066, 1:1250), α-tubulin (Sigma T6074, 1:20,000), and acetylated α-tubulin (Sigma T6793, 1:2,500) overnight in 5% milk in PBST at 4° C. on a rocker. Membranes were thrice washed in PBST for 15 min on a shaker and incubated in either an anti-rabbit-HRP (Bio-Rad 170-5046, 1:10,000) or anti-mouse-HRP (Sigma A3682, 1:4,000) secondary solution as appropriate in 3% milk in PBST for 1 hr at room temperature on a rocker. After four washes of 15 min in PBST on a shaker, blots were visualized using SuperSignal West Pico Chemiluminescent Substrate (Pierce 34080) or SuperSignal West Dura Extended Duration Substrate (Thermo 34075) and exposed on Scientific Imaging Film (Kodak 864 6770).
Dose-response induction of NRF2-target proteins NQO1 and GCLM in wild type mouse cortical neurons (6 DIV) treated with MIND4 and MIND4-17 for 24 hr was consistent with the compound effects on ARE-dependent gene transcription (FIG. 24E).
In general terms: Immunoblotting shows a protein as a band on a membrane.

Where two headings read alike, the source gives them in different places.

The results in this text go back to patent US9737525B2, “Small molecule activators of NRF2 pathway” (The General Hospital Corporation, priority 2013, dated 2017).

Chain of recombinant human KEAP1 protein (Q14145 whole entry): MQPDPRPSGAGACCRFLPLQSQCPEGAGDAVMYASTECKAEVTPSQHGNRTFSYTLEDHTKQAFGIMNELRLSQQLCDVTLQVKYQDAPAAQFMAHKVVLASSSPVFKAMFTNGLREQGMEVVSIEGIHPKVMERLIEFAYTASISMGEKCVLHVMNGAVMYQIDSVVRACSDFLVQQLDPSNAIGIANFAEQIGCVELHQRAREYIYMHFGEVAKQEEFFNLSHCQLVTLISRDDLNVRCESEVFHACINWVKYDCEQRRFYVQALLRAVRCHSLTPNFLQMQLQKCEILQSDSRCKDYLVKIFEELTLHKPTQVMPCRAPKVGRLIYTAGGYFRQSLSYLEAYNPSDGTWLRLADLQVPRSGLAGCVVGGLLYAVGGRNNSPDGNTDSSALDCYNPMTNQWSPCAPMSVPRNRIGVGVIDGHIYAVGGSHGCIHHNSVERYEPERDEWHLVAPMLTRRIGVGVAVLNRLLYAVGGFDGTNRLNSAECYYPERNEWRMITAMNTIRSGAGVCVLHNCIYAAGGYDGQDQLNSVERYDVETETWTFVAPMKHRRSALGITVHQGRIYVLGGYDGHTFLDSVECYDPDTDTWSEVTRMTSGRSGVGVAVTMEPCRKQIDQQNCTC

For the compound `O=[N+]([O-])c1ccc(Sc2nnc(COc3ccccc3)n2-c2ccccc2)c2ncccc12` [MIND4, 5-nitro-8-{[5-(phenoxymethyl)-4-phenyl-4H-1,2,4-triazol-3-yl]thio}quinoline], in experiment [1], the “Acetylation of α-tubulin (lysine K40)” value was “dose dependent increase in acetylation of α-tubulin”. Besides, the dissociation constant Kd in experiment [2] is 22.8 µM; in experiment [2] (25° C., kinetic analysis), 22.8 µM. The “Mode of binding to KEAP1” value in experiment [2] is recorded as “reversible binding”. Moreover, the “TNFα protein levels in cortical extracts” value in experiment [3] is listed as “striking reduction of TNFα”. The “Expression of NQO1 protein” value in experiment [4] is “increased the expression of NQO1 protein to the same extent”.
With `O=[N+]([O-])c1ccc(Sc2nnc(COc3ccccc3)n2-c2ccccc2)nc1` [MIND4-17], in experiment [2], the dissociation constant (Kd) was found to be 16.5 µM and the “Mode of binding to KEAP1” value is given as “reversible binding”. The dissociation constant (Kd) in experiment [2] (25° C., kinetic analysis) came out at 16.5 µM. In experiment [4], the “Expression of NQO1 protein” value is reported as “increased the expression of NQO1 protein to the same extent” and the GCLM expression result is “more potent inducer of GCLM expression”.

As a reminder, the Kd is a measure of binding affinity in units of concentration.
